# Laboratory results from US11197878B2, “Anti-inflammatory composition including novel quercetin-based compound” (AMOREPACIFIC CORPORATION, priority 2017, dated 2021).
# Tested on: skin
# Experiment: Test for skin accumulated stimulus, HRIPT (Human repeated insult patch tests)
# Assay type: in vivo
# Parameters: key to skin reactivity (ICDRG criteria): −: negative (no response); ±: doubtful or slight erythema, etc.; +: weak reaction (which is accompanied with no phlyctenule), erythema, papule; ++: severe reaction (which is accompanied with phlyctenule), erythema, papule, phlyctenule; +++: strong reaction, bullae reaction
# Conditions: for Number of examinees who exhibited ±, +, or ++ reactivity, 5th: 5th patch; for Number of examinees who exhibited ±, +, or ++ reactivity, 6th: 6th patch; for Number of examinees who exhibited ±, +, or ++ reactivity, 7th: 7th patch; for Number of examinees who exhibited ±, +, or ++ reactivity, 8th: 8th patch; for average reactivity: 9 patches over 3 weeks, 15 examinees, less than 3 is considered a stable composition; for Number of examinees who exhibited ±, +, or ++ reactivity, 9th: 9th patch; for Number of examinees who exhibited ±, +, or ++ reactivity, 1st: 1st patch; for Number of examinees who exhibited ±, +, or ++ reactivity, 2nd: 2nd patch; for Number of examinees who exhibited ±, +, or ++ reactivity, 3rd: 3rd patch; for Number of examinees who exhibited ±, +, or ++ reactivity, 4th: 4th patch
# Experimental: HRIPT (Human repeated insult patch tests) was conducted in order to identify skin accumulated stimulus of quercetin3-O-[3-O″-(E)-p-coumaroyl][β-D-glucopyranosyl-(1→3)-O-α-L-rhamnopyranosyl-(1→6)-O-β-D-glucopyranoside] and quercetin3-O-[3-O″-(E)-p-coumaroyl][α-L-rhamnopyranosyl-(1→6)-O-β-D-glucopyranoside] and to calculate the concentration range that can be used in skin. Specifically, 15 healthy adult examinees were randomly selected, and test compositions in which the compounds were respectively comprised in an amount of 0.5 wt. %, 1 wt. %, and 3 wt. % (the compositions for skin, comprising an emulsifying agent, a stabilizer, purified water, etc. in addition to the compounds) were dropped in the amount of 20 μl per chamber (IQ chamber, Epitest Ltd, Finland), and patched on the right site of the upper back of the examinees, and then, after 24 hours, the patch was replaced with a new patch. A total of 9 patches were conducted, three times a week for total 3 weeks, in such manner, the skin reactions before and after patch were examined every time, and the skin reactions until 48 hours after removing the final patch were observed, and the average reactivity was observed. The skin reaction was determined according to the criteria of International Contact Dermatitis Research Group (ICDRG). In the above table, “New Material 31” refers to quercetin3-O-[3-O″-(E)-p-coumaroyl][β-D-glucopyranosyl-(1→3)-O-α-L-rhamnopyranosyl-(1→6)-O-β-D-glucopyranoside], and “New Material 32” refers to quercetin3-O-[3-O″-(E)-p-coumaroyl][α-L-rhamnopyranosyl-(1→6)-O-β-D-glucopyranoside].
smiles,measurement,setting,value
"C[C@@H]1O[C@@H](OC[C@H]2O[C@@H](Oc3c(-c4ccc(O)c(O)c4)oc4cc(O)cc(O)c4c3=O)[C@H](O)[C@@H](OC(=O)/C=C/c3ccc(O)cc3)[C@@H]2O)[C@H](O)[C@H](O)[C@H]1O [New Material 32, quercetin3-O-[3-O″-(E)-p-coumaroyl][α-L-rhamnopyranosyl-(1→6)-O-β-D-glucopyranoside]]","Number of examinees who exhibited ±, +, or ++ reactivity, 5th","1 wt. %, line 1 of 3 (±)",0 number
same,"Number of examinees who exhibited ±, +, or ++ reactivity, 5th","1 wt. %, line 2 of 3 (+)",0 number
same,"Number of examinees who exhibited ±, +, or ++ reactivity, 5th","1 wt. %, line 3 of 3 (++)",0 number
same,"Number of examinees who exhibited ±, +, or ++ reactivity, 6th","1 wt. %, line 1 of 3 (±)",0 number
same,"Number of examinees who exhibited ±, +, or ++ reactivity, 6th","1 wt. %, line 2 of 3 (+)",0 number
same,"Number of examinees who exhibited ±, +, or ++ reactivity, 6th","1 wt. %, line 3 of 3 (++)",0 number
same,"Number of examinees who exhibited ±, +, or ++ reactivity, 7th","1 wt. %, line 1 of 3 (±)",0 number
same,"Number of examinees who exhibited ±, +, or ++ reactivity, 7th","1 wt. %, line 2 of 3 (+)",0 number
same,"Number of examinees who exhibited ±, +, or ++ reactivity, 7th","1 wt. %, line 3 of 3 (++)",0 number
same,"Number of examinees who exhibited ±, +, or ++ reactivity, 8th","1 wt. %, line 1 of 3 (±)",0 number
same,"Number of examinees who exhibited ±, +, or ++ reactivity, 8th","1 wt. %, line 2 of 3 (+)",0 number
same,"Number of examinees who exhibited ±, +, or ++ reactivity, 8th","1 wt. %, line 3 of 3 (++)",0 number
same,average reactivity,1 wt. %,0
same,"Number of examinees who exhibited ±, +, or ++ reactivity, 9th","1 wt. %, line 1 of 3 (±)",0 number
same,"Number of examinees who exhibited ±, +, or ++ reactivity, 9th","1 wt. %, line 2 of 3 (+)",0 number
same,"Number of examinees who exhibited ±, +, or ++ reactivity, 9th","1 wt. %, line 3 of 3 (++)",0 number
same,"Number of examinees who exhibited ±, +, or ++ reactivity, 1st","3 wt. %, line 1 of 3 (±)",0 number
same,"Number of examinees who exhibited ±, +, or ++ reactivity, 1st","3 wt. %, line 2 of 3 (+)",0 number
same,"Number of examinees who exhibited ±, +, or ++ reactivity, 1st","3 wt. %, line 3 of 3 (++)",0 number
same,"Number of examinees who exhibited ±, +, or ++ reactivity, 2nd","3 wt. %, line 1 of 3 (±)",0 number
same,"Number of examinees who exhibited ±, +, or ++ reactivity, 2nd","3 wt. %, line 2 of 3 (+)",0 number
same,"Number of examinees who exhibited ±, +, or ++ reactivity, 2nd","3 wt. %, line 3 of 3 (++)",0 number
same,"Number of examinees who exhibited ±, +, or ++ reactivity, 3rd","3 wt. %, line 1 of 3 (±)",0 number
same,"Number of examinees who exhibited ±, +, or ++ reactivity, 3rd","3 wt. %, line 2 of 3 (+)",0 number
same,"Number of examinees who exhibited ±, +, or ++ reactivity, 3rd","3 wt. %, line 3 of 3 (++)",0 number
same,"Number of examinees who exhibited ±, +, or ++ reactivity, 4th","3 wt. %, line 1 of 3 (±)",0 number
same,"Number of examinees who exhibited ±, +, or ++ reactivity, 4th","3 wt. %, line 2 of 3 (+)",0 number
same,"Number of examinees who exhibited ±, +, or ++ reactivity, 4th","3 wt. %, line 3 of 3 (++)",0 number
same,"Number of examinees who exhibited ±, +, or ++ reactivity, 5th","3 wt. %, line 1 of 3 (±)",0 number
same,"Number of examinees who exhibited ±, +, or ++ reactivity, 5th","3 wt. %, line 2 of 3 (+)",0 number
same,"Number of examinees who exhibited ±, +, or ++ reactivity, 5th","3 wt. %, line 3 of 3 (++)",0 number
same,"Number of examinees who exhibited ±, +, or ++ reactivity, 6th","3 wt. %, line 1 of 3 (±)",0 number
same,"Number of examinees who exhibited ±, +, or ++ reactivity, 6th","3 wt. %, line 2 of 3 (+)",0 number
same,"Number of examinees who exhibited ±, +, or ++ reactivity, 6th","3 wt. %, line 3 of 3 (++)",0 number
same,"Number of examinees who exhibited ±, +, or ++ reactivity, 7th","3 wt. %, line 1 of 3 (±)",0 number
same,"Number of examinees who exhibited ±, +, or ++ reactivity, 7th","3 wt. %, line 2 of 3 (+)",0 number
same,"Number of examinees who exhibited ±, +, or ++ reactivity, 7th","3 wt. %, line 3 of 3 (++)",0 number
same,"Number of examinees who exhibited ±, +, or ++ reactivity, 8th","3 wt. %, line 1 of 3 (±)",0 number
same,"Number of examinees who exhibited ±, +, or ++ reactivity, 8th","3 wt. %, line 2 of 3 (+)",0 number
same,"Number of examinees who exhibited ±, +, or ++ reactivity, 8th","3 wt. %, line 3 of 3 (++)",0 number
same,average reactivity,3 wt. %,0
same,"Number of examinees who exhibited ±, +, or ++ reactivity, 9th","3 wt. %, line 1 of 3 (±)",0 number
same,"Number of examinees who exhibited ±, +, or ++ reactivity, 9th","3 wt. %, line 2 of 3 (+)",0 number
same,"Number of examinees who exhibited ±, +, or ++ reactivity, 9th","3 wt. %, line 3 of 3 (++)",0 number
same,skin reactivity (ICDRG criteria),"within the range of contents 0.5 wt. %, 1 wt. %, 3 wt. %",−
